Data taken from patent US20160367515A1, “Improved delivery of poorly water soluble drugs with aphafetoprotein stabilized with metal ions” (Oy Safemed Ltd., priority 2013, published 2016).

What was measured:
[1] = test system: normal CBA mice splenocytes; assay: Unspecific toxicity against normal splenocytes, trypan blue staining; conditions: 48 h, standalone
Protocol: Zn-rhAFP was prepared in a molecular ratio Zn:rhAFP=4:1. Viable cells were visualized by trypan blue staining. The data are expressed as percentage of viable cells in experimental cell cultures relative to untreated control. Mean of three independent experiments is shown.
Viable cells were visualized by trypan blue staining.

[2] = test system: mammary carcinoma cell line MCF-7; assay: MTS cell viability assay, mammary carcinoma MCF-7 cells; assay type: cell-based, human
Protocol: Effect of binding of Zn ions to rhAFP and sugar-free rhAFPo species was tested by measuring of their dose-dependent tumor-suppressive effect for mammary carcinoma cell line MCF-7 in vitro, as it was earlier described for natural embryonic eAFP (Dudich et al., Eur. J. Biochem. 1999; 266: 750-761). MCF-7 cells were incubated with various doses of rhAFP (rhAFPo), Zn-rhAFP (Zn-rhAFPo) or with natural embryonic eAFP for 48 h, and thereafter their viability was assessed by the colorimetric MTS assay (FIG. 1A).
Cell viability was assessed by the Promega CellTiter 96 AQueous Non-Radioactive Cell Proliferation MTS assay (Promega, USA) according to manufacturer's instructions. Cells were incubated with various AFP samples for 48 h as described above, followed by incubation with MTS-test reagents and measuring of the light adsorption of the formasan, appeared in the lysed cell supernatants at 492 nm by using VICTOR-1420 multilabel counter (Wallac, Finland). Intact cell cultures incubated without additions were taken as a control. By such a way the quantity of viable cells capable to internalize MTS dye was determined. Results were expressed as the mean optical density (OD)±the standard error of the mean triplicate cultures. The extent of cell viability was calculated as an average OD in experimental wells after addition of testing compounds in relation to untreated control wells, that was taken as 100%
To evaluate the efficacy of preparations rhAFP/Ptx and Zn-rhAFP/Ptx we compared the cytotoxic effect of Ptx alone or that in combination with rhAFP or Zn-rhAFP for taxol-resistant human hepatoma HepG2 cells, human breast carcinoma cells MCF-7, and rat glioma C6 cell lines in vitro. RhAFP or Zn-rhAFP were incubated with various doses of Ptx at 37° C. for 1 h to allow complex formation with molecular ratios rhAFP:Ptx 1:1; 1:3 or 1:5 and thereafter the mixtures were introduced into the cell culture for 48 hrs. Cytotoxicity was measured by MTS assay.
Various doses of rhAFP/Ptx complexes were tested for their effectiveness for inhibition of human mammary carcinoma MCF-7, human hepatoma HepG2, and rat glioma C6 tumor cell growth in vitro. First, we optimized drug concentration and rhAFP amount to the extent that it would not generate an extensive cytotoxic effect alone. Then, the cells were seeded in 96-well plates at a density of 3×10^3/well in 100 μl of medium for 24 hrs to allow adherence. The next day, rhAFP or Zn-rhAFP combined with Ptx at the molecular ratios of 1:1; 1:3 or 1:5 were added into the each well. After 48 h of incubation MTS assays were performed to determine survival rate of the cells. All the experiments were repeated at least three times. The results were expressed as mean±standard error (SE).
The coefficient of drug interaction (CDI) was calculated to analyze the effects of rhAFP and Ptx combinations. CDI was calculated by the equation: CDI=SRAFP/drug[…]/SRAFP×SRdrug, where SRAFP/drug is the average survival rate of combination group, and SRAFP or SRdrug are the average survival rates of the single agent groups. According to our evaluation, CDI values <1, =1 or >1 indicate that the combinations are synergistic, additive or antagonistic respectively.
The values of Zn-rhAFP/Ptx or rhAFP/Ptx complex concentration, which inhibited the cell viability by 50% (IC50) when compared to untreated control, were calculated according to the Hill's equation (sigmoid model of concentration-response curve) from the curves of dependence of the relative percentage of viable cells from AFP concentration expressed as mean values from three independent experiments±SD.
In order to confirm the hypothesis that the combination of Zn-rhAFP and various low water-soluble chemotherapeutic agents would reveal increased anti-tumor efficacy, different cytotoxic compounds were tested in combination with Zn-rhAFP for their cell-killing effect in MCF-7 cells in vitro. […]

[3] = test system: NF-κB p65; assay: Immunofluorescence of activated NF-κB p65 nuclear translocation in MCF-7 cells; assay type: cell-based, human; conditions: MCF-7, 2 h treatment
Protocol: The cells were incubated with paclitaxel (10 μM) with addition of Zn-rhAFP (3.0 μM) and/or curcumin (3.0 μM) for 2 h and then assessed for localization of p65 by immunocytochemistry. Activated […] (p65) was detected by treatment of the cells with phospho […] p65 rabbit polyclonal antibody (Cell signaling technologies, USA) followed by secondary goat anti-rabbit Ab-Alexa594 red (Molecular Probes, USA). Cells were visualized at magnification ×400 by fluorescent microscope Axioplan; Zeiss (Germany) equipped with corresponding color filter kits.
The relative amount of p65 in the cytosol and nucleus of the cells was assessed by ImageJ software and was taken as 100% in the control (cytosol+nucleus). Total amount of activated p65 in control untreated cells was taken as 100%. The experimental data are represented as percentage of control±SD from three independent calculations in various observation fields.
MCF-7 cells were seeded on the microscopic plates Lab-Tek™ Chamber Slides (Thermo Fisher Scientific-Nunc, Germany) and cultivated at 37° C. at 5% CO2 atmosphere for 48 h to allow cell adaptation to reach 80% confluence. To test effects of chemotherapeutic preparations on the activation and translocation of NF-κB, cells were treated for 2 h with Ptx (10 nM), curcumin (30 μM); Zn-rhAFP (1.4 μM), or their combination Zn-rhAFP/Ptx/Cur, after which they were fixed with 100% ice-cold acetone. Control cells were incubated without additions and their NF-κB content was taken as 100%. Activated NF-κB was detected by treatment of the cells with phospho NF-κB p65 rabbit polyclonal antibody (Cell signaling technologies, USA) followed by the secondary goat anti-rabbit antibodies Ab-Alexa594 (Molecular Probes, USA). Nuclei were visualized by staining with DAPI (Molecular probes, USA). Cells were visualized at magnification ×400 by fluorescent microscope Axioplan (Zeiss, Germany) equipped with corresponding color filter kits. Distribution throughout the cell of the activated p65 was assessed by the ImageJ software and was taken as 100% in the control samples (cytosol+nucleus).

IC50 ([2]; Homo sapiens, MCF7, MCF-7, 48 h, compositions of paclitaxel with rhAFP or Zn-rhAFP, mean of three experiments, read-out: IC50): > 10 µM
SMILES: CC(=O)O[C@H]1C(=O)[C@@]2(C)[C@H]([C@H](OC(=O)c3ccccc3)[C@]3(O)C[C@H](OC(=O)[C@H](O)[C@@H](NC(=O)c4ccccc4)c4ccccc4)C(C)=C1C3(C)C)[C@]1(OC(C)=O)CO[C@@H]1C[C@@H]2O [Ptx, paclitaxel]
cytotoxic effect against normal splenocytes [1]: strong dose-dependent growth suppression | Coefficient for drug interaction (CDI) ([2]; MCF7 + Zn-rhAFP 1.4 μM (Zn:rhAFP 4:1) + drug, 48 h): 0.80 | effect on activated p65 (RelA) in the cell nucleus [3]: significant enhance of activated p65 localized in the nuclear region
